Experimental data taken from ChEMBL document CHEMBL1201862, “PubChem BioAssay data set” (2004).
Activity calls are given as the source filed them.

How the values were obtained:
[1] = target: DNA (cytosine-5)-methyltransferase 1 (Homo sapiens, UniProt P26358); assay: inhibition of DNA methylation by DNMT1 – biochemical, fluorescent molecular beacon, confirmation (AID 602386); assay type: functional
[2] = target: T1, Carboxy-terminal domain RNA polymerase II polypeptide A small phosphatase 1 (Homo sapiens, UniProt Q9GZU7); assay: CTDSP1 inhibitors, concentration-response, biochemical, absorbance readout, ultra-high-throughput screen actives (AID 540297); assay type: functional
T1 sequence (Q9GZU7 whole entry): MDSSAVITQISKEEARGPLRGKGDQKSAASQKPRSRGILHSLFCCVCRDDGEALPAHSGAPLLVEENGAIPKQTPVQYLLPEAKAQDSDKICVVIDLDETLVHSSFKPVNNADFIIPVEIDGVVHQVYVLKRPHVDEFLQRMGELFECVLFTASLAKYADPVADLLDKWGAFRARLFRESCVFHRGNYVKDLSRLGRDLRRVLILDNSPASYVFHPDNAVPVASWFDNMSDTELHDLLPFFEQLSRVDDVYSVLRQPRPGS

Genome polyprotein = Genome polyprotein (Hepatitis C virus, UniProt Q2Q167); assay: disruption of hepatitis C core self-association – biochemical, TR-FRET, dose response (AID 2159); set-up: species or system Hepacivirus hominis;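 also: blocks dimerization of HCV core protein measured by TR-FRET between tagged core106 pairs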
Prothrombin = Prothrombin (Bos taurus, UniProt P00735); assay: thrombin protease inhibitors – biochemical, fluorescence polarization, uHTS hits, dose response (AID 602369); assay type: functional
SUMO-activating enzyme [3] = target: T2, SUMO-activating enzyme (Homo sapiens, UniProt Q9UBT2); assay: blockers of SAE1/SAE2–UBC9 SUMO transfer – biochemical, HTRF, uHTS, primary screen (AID 2006); assay type: protein-complex assay
[4] = target: T3, Small ubiquitin-related modifier 1 (Homo sapiens, UniProt P63165); assay: SUMO1 protein interaction blockers, potency – biochemical, fluorescence polarization, uHTS hits, dose response (AID 624382); assay type: functional; conditions: read-out: IC50_Mean
[5] = target: T3, Small ubiquitin-related modifier 1; assay: SUMO1 protein-protein binding blockers, potency – biochemical, FRET, dose response (AID 624383); assay type: functional; conditions: read-out: IC50_Mean
SUMO-activating enzyme [6] = target: T2, SUMO-activating enzyme; assay: blockers of UBC9-mediated SUMO conjugation – biochemical, AlphaScreen, SUMOylation inhibitor project, confirmation (AID 2018); assay type: functional
[7] = target: 26S proteasome non-ATPase regulatory subunit 14 (Homo sapiens, UniProt O00487); assay: inhibition of proteasome subunit RPN11 – biochemical, fluorescence polarization, uHTS hits, confirmation (AID 602368); assay type: functional
[8] = target: 72 kDa type IV collagenase (Homo sapiens, UniProt P08253); assay: Dose Response validation of uHTS RPN11 inhibitor hits using a MMP-2 Fluorescence assay.; assay type: functional
[9] = Trypanosoma cruzi growth suppression in host cells – NIH3T3 host cells, beta-gal luminescence, confirmation (AID 2044); assay type: functional, cell-based;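 also: intracellular parasites grown in NIH/3T3 mouse fibroblasts as host cells; luminescent beta-galactosidase reporter signal from transgenic T. cruzi replicating inside host cells; inhibitors lower the luminescence signal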
[10] = target: T4, Tyrosine-protein phosphatase non-receptor type 22 (Homo sapiens, UniProt Q9Y2R2); assay type: functional
T4 sequence (Q9Y2R2 whole entry): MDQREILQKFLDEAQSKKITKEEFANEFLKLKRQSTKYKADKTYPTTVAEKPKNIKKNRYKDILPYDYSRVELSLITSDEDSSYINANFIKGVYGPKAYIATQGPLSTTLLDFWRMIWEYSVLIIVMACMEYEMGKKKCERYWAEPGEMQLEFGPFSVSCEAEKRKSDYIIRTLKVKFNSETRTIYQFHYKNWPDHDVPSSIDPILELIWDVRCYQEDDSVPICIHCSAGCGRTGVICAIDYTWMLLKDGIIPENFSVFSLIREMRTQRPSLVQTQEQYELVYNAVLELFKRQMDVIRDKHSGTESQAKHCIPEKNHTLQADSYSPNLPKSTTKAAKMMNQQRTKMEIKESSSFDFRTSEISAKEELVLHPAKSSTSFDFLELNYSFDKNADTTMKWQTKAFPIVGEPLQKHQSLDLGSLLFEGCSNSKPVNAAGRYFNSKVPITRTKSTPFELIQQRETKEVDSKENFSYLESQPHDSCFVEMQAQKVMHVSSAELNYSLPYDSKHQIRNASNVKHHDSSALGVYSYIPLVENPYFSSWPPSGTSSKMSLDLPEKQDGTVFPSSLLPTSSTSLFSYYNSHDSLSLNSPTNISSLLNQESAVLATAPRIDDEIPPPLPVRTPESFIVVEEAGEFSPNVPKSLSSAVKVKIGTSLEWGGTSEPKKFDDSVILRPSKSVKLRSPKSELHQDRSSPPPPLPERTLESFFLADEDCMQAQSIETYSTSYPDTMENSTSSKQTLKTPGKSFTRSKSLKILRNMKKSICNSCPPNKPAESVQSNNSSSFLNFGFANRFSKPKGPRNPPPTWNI

[11] = target: T5, Tyrosine-protein phosphatase non-receptor type 7 (Homo sapiens, UniProt P35236); assay type: functional
T5 sequence (P35236 whole entry): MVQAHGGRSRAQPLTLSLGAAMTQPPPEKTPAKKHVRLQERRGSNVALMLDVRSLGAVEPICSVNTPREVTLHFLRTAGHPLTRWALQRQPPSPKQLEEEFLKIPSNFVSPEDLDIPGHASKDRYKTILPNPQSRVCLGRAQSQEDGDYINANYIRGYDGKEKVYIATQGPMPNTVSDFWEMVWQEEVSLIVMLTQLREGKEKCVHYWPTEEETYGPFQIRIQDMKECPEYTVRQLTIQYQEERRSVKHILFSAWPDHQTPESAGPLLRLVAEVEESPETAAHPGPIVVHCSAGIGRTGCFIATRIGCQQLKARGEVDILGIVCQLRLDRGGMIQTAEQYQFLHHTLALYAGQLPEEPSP

[12] = NIH3T3 cell viability loss – ATP luminescence, mouse fibroblasts, counter-screen, dose response (AID 2010); assay type: functional, cell-based;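 also: cells exposed to compound for about 90 hours before reading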
[13] = target: T4, Tyrosine-protein phosphatase non-receptor type 22; assay type: functional; remark: listed apart in the source
BJ [14] = assay: cells; assay type: functional, cell-based; conditions: Homo sapiens
BJ [15] = assay: BJ-TERT-LT-ST fibroblast viability loss – cell-based, RAS-independent, luminescence, dose response (AID 1935); assay type: functional; conditions: Homo sapiens;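 also: BJ fibroblasts immortalized with TERT plus LT and ST oncogenes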
Cannabinoid receptor 2 [16] = target: T6, Cannabinoid receptor 2 (Homo sapiens, UniProt P34972); assay: SAR analysis of agonists of the Cannabinoid Receptor 2 using an Image-Based Assay - Set 2. [Related pubchem assays (depositor defined):AID1961, AID1965]; assay type: functional
[17] = target: T7, G-protein coupled receptor 55 (Homo sapiens, UniProt Q9Y2T6); assay: selective activators of receptor GPR55 – imaging, U2OS cells, beta-arrestin-GFP redistribution, primary screen (AID 1961); assay type: functional
Cannabinoid receptor 2 [18] = target: T6, Cannabinoid receptor 2; assay: SAR analysis of antagonists of the Cannabinoid Receptor 2 using an Image-Based Assay - Set 2. [Related pubchem assays (depositor defined):AID1961, AID1965]; assay type: functional
[19] = DRD fibroblast viability loss – cell-based, non-viral oncogenic, luminescence, dose response (AID 1934); assay type: functional; conditions: Homo sapiens
[20] = target: T7, G-protein coupled receptor 55; assay: SAR analysis of selective Agonists of GPR55 using an Image-Based Assay. [Related pubchem assays (depositor defined):AID1961, AID1965]; assay type: functional
Cannabinoid receptor 1 = Cannabinoid receptor 1 (Homo sapiens, UniProt P21554); assay: SAR analysis of antagonists of the Cannabinoid Receptor 1 using an Image-Based Assay. [Related pubchem assays (depositor defined):AID1961, AID1965]; assay type: functional
[21] = Luminescence Cell-Based Dose Retest to Confirm Inhibitors of Cancer Stem Cells. [Related pubchem assays (depositor defined):AID2717, AID2721]; assay type: functional; conditions: Homo sapiens
BJ [22] = assay: BJ-TERT fibroblast viability loss – cell-based, RAS-independent, luminescence, dose response (AID 1933); assay type: functional; conditions: Homo sapiens
[23] = target: Intestinal-type alkaline phosphatase (Mus musculus, UniProt P24822); assay: mouse intestinal alkaline phosphatase activators, dose response, biochemical, luminescence, uHTS hits (AID 488783); assay type: functional
[24] = target: Intestinal-type alkaline phosphatase (Homo sapiens, UniProt P09923); assay: activation of human intestinal alkaline phosphatase – biochemical, dose response (AID 488873); assay type: functional
[25] = target: T8, Alkaline phosphatase, tissue-nonspecific isozyme (Homo sapiens, UniProt P05186); assay: activation of tissue-nonspecific alkaline phosphatase – biochemical, TNAP isozyme, mouse IAP uHTS hits, selectivity assay for mouse IAP activator project, dose response (AID 488880); assay type: functional
T8 sequence (P05186 whole entry): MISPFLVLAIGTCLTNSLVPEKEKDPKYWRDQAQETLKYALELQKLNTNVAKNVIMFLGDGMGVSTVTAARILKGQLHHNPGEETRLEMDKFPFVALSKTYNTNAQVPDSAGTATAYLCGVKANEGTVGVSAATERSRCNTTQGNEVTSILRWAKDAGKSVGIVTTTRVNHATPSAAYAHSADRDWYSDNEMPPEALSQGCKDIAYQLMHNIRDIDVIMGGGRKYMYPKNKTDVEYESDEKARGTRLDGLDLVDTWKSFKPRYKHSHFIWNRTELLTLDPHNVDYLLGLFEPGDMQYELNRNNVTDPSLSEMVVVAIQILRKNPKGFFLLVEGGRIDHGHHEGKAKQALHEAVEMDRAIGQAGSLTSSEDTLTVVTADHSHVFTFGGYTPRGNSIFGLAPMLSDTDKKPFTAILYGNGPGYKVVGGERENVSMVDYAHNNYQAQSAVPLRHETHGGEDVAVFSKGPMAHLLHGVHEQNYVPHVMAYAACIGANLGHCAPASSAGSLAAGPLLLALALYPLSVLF
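For AC50 in this document: cells exposed to compound for roughly 70 hours or longer before luminescence read.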

T3 sequence (P63165 whole entry): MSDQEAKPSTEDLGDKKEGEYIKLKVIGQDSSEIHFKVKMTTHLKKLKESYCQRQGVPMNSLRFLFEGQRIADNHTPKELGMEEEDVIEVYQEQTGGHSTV
T6 sequence (P34972 whole entry): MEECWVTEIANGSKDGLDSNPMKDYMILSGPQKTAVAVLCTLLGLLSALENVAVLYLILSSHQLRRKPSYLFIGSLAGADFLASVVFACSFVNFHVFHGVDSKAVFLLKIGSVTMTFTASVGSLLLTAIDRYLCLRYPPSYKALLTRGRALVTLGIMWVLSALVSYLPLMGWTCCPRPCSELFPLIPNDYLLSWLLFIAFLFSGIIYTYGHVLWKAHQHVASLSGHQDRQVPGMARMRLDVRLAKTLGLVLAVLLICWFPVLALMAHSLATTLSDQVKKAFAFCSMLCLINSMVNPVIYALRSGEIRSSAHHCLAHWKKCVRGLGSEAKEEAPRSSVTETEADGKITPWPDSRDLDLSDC
T7 sequence (Q9Y2T6 whole entry): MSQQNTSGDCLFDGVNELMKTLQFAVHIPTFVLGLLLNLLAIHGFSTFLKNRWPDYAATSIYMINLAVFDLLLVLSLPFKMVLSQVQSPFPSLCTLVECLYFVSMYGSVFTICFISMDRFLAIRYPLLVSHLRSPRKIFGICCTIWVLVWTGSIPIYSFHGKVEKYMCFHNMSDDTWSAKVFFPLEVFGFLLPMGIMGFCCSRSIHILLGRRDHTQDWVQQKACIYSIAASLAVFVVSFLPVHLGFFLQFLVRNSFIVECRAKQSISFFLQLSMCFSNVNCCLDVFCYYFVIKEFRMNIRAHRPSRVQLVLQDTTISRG
T2 sequence (Q9UBE0 whole entry): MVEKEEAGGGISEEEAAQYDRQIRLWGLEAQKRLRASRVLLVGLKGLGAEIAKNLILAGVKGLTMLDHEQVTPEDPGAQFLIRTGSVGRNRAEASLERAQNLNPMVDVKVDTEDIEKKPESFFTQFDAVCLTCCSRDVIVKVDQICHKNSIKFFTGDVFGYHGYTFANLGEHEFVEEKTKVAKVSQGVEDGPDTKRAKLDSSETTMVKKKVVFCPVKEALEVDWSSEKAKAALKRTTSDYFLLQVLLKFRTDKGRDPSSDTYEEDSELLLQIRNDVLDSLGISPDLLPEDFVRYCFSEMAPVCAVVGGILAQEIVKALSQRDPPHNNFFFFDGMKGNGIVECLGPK
T2 sequence (Q9UBT2 whole entry): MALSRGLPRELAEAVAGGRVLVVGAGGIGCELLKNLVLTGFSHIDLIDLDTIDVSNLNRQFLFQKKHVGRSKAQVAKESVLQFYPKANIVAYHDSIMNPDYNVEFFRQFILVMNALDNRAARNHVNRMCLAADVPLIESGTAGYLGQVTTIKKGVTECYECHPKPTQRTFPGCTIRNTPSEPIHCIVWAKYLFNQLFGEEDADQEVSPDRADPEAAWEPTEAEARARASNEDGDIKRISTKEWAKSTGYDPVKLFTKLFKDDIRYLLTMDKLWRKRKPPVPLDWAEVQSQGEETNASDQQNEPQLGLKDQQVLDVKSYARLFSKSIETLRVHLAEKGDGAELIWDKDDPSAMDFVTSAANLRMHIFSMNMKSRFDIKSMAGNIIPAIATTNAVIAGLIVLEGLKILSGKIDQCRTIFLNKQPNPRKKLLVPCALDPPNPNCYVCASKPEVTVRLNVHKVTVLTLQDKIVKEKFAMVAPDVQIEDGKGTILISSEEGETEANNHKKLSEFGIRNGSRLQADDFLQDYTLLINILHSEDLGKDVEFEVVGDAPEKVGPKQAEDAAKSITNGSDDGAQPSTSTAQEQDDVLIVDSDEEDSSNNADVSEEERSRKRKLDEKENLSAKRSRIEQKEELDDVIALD
Chain of DNA (cytosine-5)-methyltransferase 1 (P26358 whole entry, the tested form may be a part): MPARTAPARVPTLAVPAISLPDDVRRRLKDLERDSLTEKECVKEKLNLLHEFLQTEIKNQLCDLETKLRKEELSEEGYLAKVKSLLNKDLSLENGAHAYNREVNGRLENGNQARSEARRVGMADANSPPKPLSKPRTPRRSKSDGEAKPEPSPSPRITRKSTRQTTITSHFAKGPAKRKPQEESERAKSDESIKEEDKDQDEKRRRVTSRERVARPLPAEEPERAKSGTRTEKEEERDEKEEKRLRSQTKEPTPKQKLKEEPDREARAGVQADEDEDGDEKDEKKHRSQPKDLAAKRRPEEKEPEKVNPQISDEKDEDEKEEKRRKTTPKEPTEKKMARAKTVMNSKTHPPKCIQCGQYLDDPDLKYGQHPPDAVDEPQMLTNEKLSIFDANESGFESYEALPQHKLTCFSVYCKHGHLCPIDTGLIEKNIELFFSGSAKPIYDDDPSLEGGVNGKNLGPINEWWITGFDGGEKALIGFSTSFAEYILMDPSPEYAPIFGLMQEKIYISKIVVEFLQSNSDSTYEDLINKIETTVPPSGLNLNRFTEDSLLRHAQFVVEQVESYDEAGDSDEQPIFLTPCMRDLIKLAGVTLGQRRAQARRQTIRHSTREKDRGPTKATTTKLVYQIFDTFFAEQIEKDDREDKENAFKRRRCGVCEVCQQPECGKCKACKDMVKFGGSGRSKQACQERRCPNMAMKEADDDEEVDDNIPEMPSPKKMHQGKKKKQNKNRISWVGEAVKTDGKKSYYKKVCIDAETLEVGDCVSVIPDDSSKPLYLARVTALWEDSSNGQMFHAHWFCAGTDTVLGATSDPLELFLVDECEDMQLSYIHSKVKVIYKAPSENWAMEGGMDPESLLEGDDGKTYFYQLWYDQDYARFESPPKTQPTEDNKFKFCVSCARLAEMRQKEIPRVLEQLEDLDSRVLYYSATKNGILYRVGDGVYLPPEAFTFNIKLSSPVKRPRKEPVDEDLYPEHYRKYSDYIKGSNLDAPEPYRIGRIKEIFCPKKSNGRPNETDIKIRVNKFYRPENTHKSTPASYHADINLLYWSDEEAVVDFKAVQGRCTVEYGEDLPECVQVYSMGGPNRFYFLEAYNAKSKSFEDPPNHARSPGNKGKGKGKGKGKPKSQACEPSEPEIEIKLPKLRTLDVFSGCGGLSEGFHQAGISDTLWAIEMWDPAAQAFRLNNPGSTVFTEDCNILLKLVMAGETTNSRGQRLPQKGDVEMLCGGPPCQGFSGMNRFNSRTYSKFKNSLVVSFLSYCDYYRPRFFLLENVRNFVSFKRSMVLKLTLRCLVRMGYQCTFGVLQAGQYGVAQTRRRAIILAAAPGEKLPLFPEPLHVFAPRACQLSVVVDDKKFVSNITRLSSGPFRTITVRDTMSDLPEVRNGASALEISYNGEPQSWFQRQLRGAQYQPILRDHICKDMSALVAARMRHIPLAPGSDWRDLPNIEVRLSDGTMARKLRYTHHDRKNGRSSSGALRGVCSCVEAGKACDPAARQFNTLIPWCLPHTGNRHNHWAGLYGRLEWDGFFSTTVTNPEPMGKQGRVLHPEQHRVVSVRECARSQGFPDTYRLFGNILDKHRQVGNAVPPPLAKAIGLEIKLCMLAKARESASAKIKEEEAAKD
Chain of Intestinal-type alkaline phosphatase (Homo sapiens, UniProt P09923) (P09923 whole entry): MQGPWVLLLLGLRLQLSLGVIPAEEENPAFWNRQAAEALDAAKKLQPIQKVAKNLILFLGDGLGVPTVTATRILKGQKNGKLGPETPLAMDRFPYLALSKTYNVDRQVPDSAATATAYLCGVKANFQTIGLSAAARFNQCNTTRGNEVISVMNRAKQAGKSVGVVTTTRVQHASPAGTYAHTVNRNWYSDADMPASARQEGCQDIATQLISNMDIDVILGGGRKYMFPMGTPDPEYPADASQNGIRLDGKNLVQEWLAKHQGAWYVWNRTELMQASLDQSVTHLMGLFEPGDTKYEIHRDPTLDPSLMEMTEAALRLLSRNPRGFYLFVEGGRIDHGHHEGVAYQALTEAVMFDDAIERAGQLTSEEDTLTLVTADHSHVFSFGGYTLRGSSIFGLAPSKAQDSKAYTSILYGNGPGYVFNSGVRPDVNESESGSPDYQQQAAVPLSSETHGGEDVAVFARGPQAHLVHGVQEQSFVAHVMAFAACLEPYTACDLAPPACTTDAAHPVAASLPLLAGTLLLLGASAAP
Chain of 72 kDa type IV collagenase (P08253 whole entry): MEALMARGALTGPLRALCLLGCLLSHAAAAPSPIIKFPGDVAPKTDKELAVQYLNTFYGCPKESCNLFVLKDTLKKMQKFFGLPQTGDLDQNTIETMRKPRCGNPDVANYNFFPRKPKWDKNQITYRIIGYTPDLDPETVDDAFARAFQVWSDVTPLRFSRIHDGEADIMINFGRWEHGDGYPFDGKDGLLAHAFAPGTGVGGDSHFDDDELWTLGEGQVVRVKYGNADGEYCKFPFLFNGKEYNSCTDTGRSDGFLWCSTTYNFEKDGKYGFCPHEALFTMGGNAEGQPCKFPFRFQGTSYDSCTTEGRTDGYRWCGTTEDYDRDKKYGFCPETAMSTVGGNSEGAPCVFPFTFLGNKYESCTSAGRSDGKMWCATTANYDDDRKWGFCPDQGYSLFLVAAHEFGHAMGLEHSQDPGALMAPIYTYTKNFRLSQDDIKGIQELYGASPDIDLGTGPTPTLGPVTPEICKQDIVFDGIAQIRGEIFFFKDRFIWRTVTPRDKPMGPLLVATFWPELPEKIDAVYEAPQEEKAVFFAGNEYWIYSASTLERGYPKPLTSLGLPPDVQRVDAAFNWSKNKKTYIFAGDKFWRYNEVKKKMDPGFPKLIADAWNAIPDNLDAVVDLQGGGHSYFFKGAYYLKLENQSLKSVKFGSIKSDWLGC
Chain of 26S proteasome non-ATPase regulatory subunit 14 (O00487 whole entry): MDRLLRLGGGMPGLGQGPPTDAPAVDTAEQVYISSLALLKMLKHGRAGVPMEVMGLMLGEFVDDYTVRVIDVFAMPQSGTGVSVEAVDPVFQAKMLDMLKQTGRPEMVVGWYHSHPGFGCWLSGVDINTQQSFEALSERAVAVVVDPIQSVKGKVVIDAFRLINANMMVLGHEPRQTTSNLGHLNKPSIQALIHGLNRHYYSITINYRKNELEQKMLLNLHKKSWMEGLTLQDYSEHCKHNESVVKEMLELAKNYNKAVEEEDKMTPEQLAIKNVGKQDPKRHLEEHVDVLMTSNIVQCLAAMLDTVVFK

## COC(=O)c1c(NC(=O)COC(=O)c2ccc(NC(=O)CC#N)cc2)sc2c1CCCCC2
[1]
  IC50: 3.35 µM (active)
[2]
  IC50: 1.84 µM (active)
Genome polyprotein
  IC50: > 49.8 µM (not active)
Prothrombin
  IC50: 85.9 µM (active)
SUMO-activating enzyme [3]
  IC50: 7.43 µM (active)
[4]
  IC50: > 66.6 µM (inactive)
[5]
  IC50: 6.24 µM (active)
SUMO-activating enzyme [6]
  IC50: 6.14 µM (active)
[7]
  IC50: 13.8 µM (active)
[8]
  IC50: > 100 µM (inactive)

## CCC(C)NCCOCCOc1ccc(Cl)c(C)c1C (stereo not drawn)
[9]
  EC50: 0.148 µM (active)
[10]
  IC50: > 79.4 µM (inactive)
[11]
  IC50: > 79.4 µM (inactive)
[12]
  EC50: 9.69 µM (active)
[13]
  IC50: > 79.4 µM (inactive)

## Cc1occc1C(=O)Nc1ccc(OCc2ccccc2)cc1
BJ [14]
  EC50: 9.33 µM (active)
BJ [15]
  EC50: > 150 µM (inconclusive)
Cannabinoid receptor 2 [16]
  EC50: > 32 µM (inactive)
[17]
  EC50: 0.866 µM (active)
Cannabinoid receptor 2 [18]
  IC50: > 32 µM (inactive)
[19]
  EC50: 9.29 µM (active)
[20]
  EC50: 0.544 µM (active)
Cannabinoid receptor 1
  IC50: > 32 µM (inactive)
[21]
  AC50: 5.34 µM (active)
BJ [22]
  EC50: 11.4 µM (active)

## COc1ccc(NC(=O)CCNS(=O)(=O)c2ccc3[nH]c(=O)oc3c2)cc1Cl
[23]
  EC50: 20.5 µM (active)
[24]
  EC50: 42.8 µM (active)
[25]
  EC50: 39.6 µM (active)
